Experiments:
Assay in all cases: Bliss excess, mean over the matrix (fraction); higher = more synergy
[1] = system: TK (B-Cell Non-Hodgkin's Lymphoma)
Method in brief: (§1)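 Cell lines grown in DMEM/F12 or RPMI with 10% FBS were plated in 1536-well plates and held 24 hours at 37°C, 5% CO2 before 72 hours of exposure to two-drug dose matrices, with DMSO typically at 0.2%. CellTiter-Glo 2.0 luminescence gave viability, which was converted to inhibition. Vehicle wells were set to 0 and blank wells to 1. Combination Emax is the second-highest inhibition in the matrix, and Bliss excess is the observed combination effect minus the expected EA + EB − EA·EB, where EA and EB are the single-agent effects.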

[2] = system: NCI-H2170 (Squamous Cell Lung Carcinoma)
Method in brief: as §1

[3] = system: GRANTA-519 (B-Cell Non-Hodgkin's Lymphoma)
Method in brief: as §1

[4] = system: COR-L105 (Lung Adenocarcinoma)
Method in brief: as §1

[5] = system: IGROV-1 (Ovarian Carcinoma)
Method in brief: as §1

SK-N-DZ (Neuroblastoma) = system: SK-N-DZ (Neuroblastoma)
Method in brief: as §1

C32 (Melanoma) = system: C32 (Melanoma)
Method in brief: as §1

[6] = system: MDA-MB-175-VII (Breast Carcinoma)
Method in brief: as §1

[7] = system: HT-1197 (Bladder Carcinoma)
Method in brief: as §1

[8] = system: L-363 (Plasma Cell Myeloma)
Method in brief: as §1

[9] = system: OVKATE (Ovarian Carcinoma)
Method in brief: as §1

A375 (Melanoma) = system: A375 (Melanoma)
Method in brief: as §1

[10] = system: SW1463 (Colorectal Carcinoma)
Method in brief: as §1

[11] = system: NCI-H1048 (Small Cell Lung Carcinoma)
Method in brief: as §1

[12] = system: SBC-5 (Small Cell Lung Carcinoma)
Method in brief: as §1

[13] = system: MRK-nu-1 (Breast Carcinoma)
Method in brief: as §1

[14] = system: C2BBe1 (Colorectal Carcinoma)
Method in brief: as §1

[15] = system: OCI-M1 (Acute Myeloid Leukemia)
Method in brief: as §1

[16] = system: Daudi (Burkitt's Lymphoma)
Method in brief: as §1

[17] = system: NCI-H1944 (Lung Adenocarcinoma)
Method in brief: as §1

SMILES	Bliss excess [1]	Bliss excess [2]	Bliss excess [3]	Bliss excess [4]	Bliss excess [5]	Bliss excess (SK-N-DZ (Neuroblastoma))	Bliss excess (C32 (Melanoma))	Bliss excess [6]	Bliss excess [7]	Bliss excess [8]	Bliss excess [9]	Bliss excess (A375 (Melanoma))	Bliss excess [10]	Bliss excess [11]	Bliss excess [12]	Bliss excess [13]	Bliss excess [14]	Bliss excess [15]	Bliss excess [16]	Bliss excess [17]
COc1cccc(OCCCN)c1-c1cc(Nc2cnc(C#N)cn2)n[nH]1 [Prexasertib] + CN(C)CCCOc1ccc(-c2ccc3ncc4c(c3c2)n(C2CCOCC2)c(=O)n4C)cn1 [AZD0156] (first compound max 1 µM, 7x7, partner max 1 µM)	-0.0412	0.0156	-0.035	-0.0428	-0.0283	0.0108	0.009	-0.0173	-0.0183	-0.039	-0.069	0.0098	-0.0265	-0.0023	-0.0086	0.0456	0.0131	-0.0504	-0.0041	0.0331
COc1cccc(OCCCN)c1-c1cc(Nc2cnc(C#N)cn2)n[nH]1 [Prexasertib] + C[C@@H]1COCCN1C2=NC(=NC(=C2)C3(CC3)[S@](=N)(=O)C)C4=C5C=CNC5=NC=C4 [AZD6738] (first compound max 1 µM, 7x7, partner max 10 µM)	-0.083	-0.0461	-0.062	-0.0425	-0.0567	0.008	-0.0529	-0.0016	0.0065	-0.0104	-0.0378	0.0067	0.0004	-0.0191	-0.0272	-0.0703	0.0009	-0.0504	-0.0295	0.0168
COc1cccc(OCCCN)c1-c1cc(Nc2cnc(C#N)cn2)n[nH]1 [Prexasertib] + Cc1cc2ncnn2cc1Nc1ncc2c(n1)n(C1CCOCC1)c(=O)n2C [AZD7648] (first compound max 1 µM, 7x7, partner max 10 µM)	-0.0477	-0.0074	-0.0489	-0.0549	-0.0264	-0.0049	-0.004	-0.0328	-0.0206	-0.0437	-0.0853	0.0029	-0.0161	-0.0275	-0.0116	-0.0258	0.0318	-0.0483	0.0017	-0.0028
COc1cccc(OCCCN)c1-c1cc(Nc2cnc(C#N)cn2)n[nH]1 [Prexasertib] + O=C(c1cc(Cc2n[nH]c(=O)c3ccccc23)ccc1F)N1CCN(C(=O)C2CC2)CC1 [Olaparib] (first compound max 1 µM, 7x7, partner max 10 µM)	-0.0837	-0.106	-0.105	-0.0135	-0.111	-0.0511	-0.0459	-0.0407	-0.044	-0.0157	-0.062	-0.0101	-0.0549	-0.0073	-0.0376	-0.0392	-0.0704	-0.0322	-0.058	-0.0498
CCc1c2c(nc3ccc(O)cc13)-c1cc3c(c(=O)n1C2)COC(=O)[C@]3(O)CC [SN-38] + CN(C)CCCOc1ccc(-c2ccc3ncc4c(c3c2)n(C2CCOCC2)c(=O)n4C)cn1 [AZD0156] (first compound max 0.3 µM, 7x7, partner max 1 µM)	0.0322	0.0296	-0.0359	-0.0799	-0.0101	0.0604	0.0537	-0.0043	-0.0537	0.0206	-0.0763	0.0168	0.0296	0.0147	0.0245	-0.0534	-0.0179	0.0128	0.0078	-0.0343
Cn1cnc2c(F)c(Nc3ccc(Br)cc3Cl)c(C(=O)NOCCO)cc21 [Selumetinib] + C=CCn1c(=O)c2cnc(Nc3ccc(N4CCN(C)CC4)cc3)nc2n1-c1cccc(C(C)(C)O)n1 [AZD1775] (first compound max 10 µM, partner max 1 µM)	-0.0478	-0.0838	0.03	0.0203	-0.0444	-0.022	-0.0036	-0.0005	0.0032	-0.0042	-0.0524	-0.0187	-0.0367	-0.0564	-0.022	-0.0289	-0.0398	0	-0.0995	-0.0481
Cn1cnc2c(F)c(Nc3ccc(Br)cc3Cl)c(C(=O)NOCCO)cc21 [Selumetinib] + CC(C)n1c(=O)n(C)c2cnc3cc(F)c(-c4ccc(OCCCN5CCCCC5)nc4)cc3c21 [AZD1390] (first compound max 10 µM, 7x7, partner max 0.3 µM)	-0.0134	-0.0384	-0.0254	0.0019	-0.0204	-0.0207	-0.0244	-0.0235	-0.0565	-0.0252	-0.0178	-0.0271	-0.0078	-0.0372	-0.0404	0.0225	-0.05	0.0164	-0.02	-0.0306
Cn1cnc2c(F)c(Nc3ccc(Br)cc3Cl)c(C(=O)NOCCO)cc21 [Selumetinib] + CCN(CCO)CCCOc1ccc2c(Nc3cc(CC(=O)Nc4cccc(F)c4)[nH]n3)ncnc2c1 [AZD2811] (first compound max 10 µM, 7x7, partner max 1 µM)	0.0002	-0.0566	0.0288	0.0147	-0.021	-0.0764	0.0124	0.0109	-0.0073	-0.0194	-0.0349	-0.0274	0.0162	-0.0121	-0.0253	0.045	-0.0439	0.0927	0.0504	0.068
Cn1cnc2c(F)c(Nc3ccc(Br)cc3Cl)c(C(=O)NOCCO)cc21 [Selumetinib] + C[C@@H]1COCCN1C2=NC(=NC(=C2)C3(CC3)[S@](=N)(=O)C)C4=C5C=CNC5=NC=C4 [AZD6738] (first compound max 10 µM, 7x7, partner max 10 µM)	0.0005	-0.0464	0.0067	0.0306	0.0211	-0.0083	0.0236	0.029	0.0196	-0.0207	-0.0282	0.0189	-0.0121	0.0132	0.0096	-0.0317	-0.052	0.0217	0.0042	0.01
CC(=O)Nc1cccc(-n2c(=O)n(C3CC3)c(=O)c3c(Nc4ccc(I)cc4F)n(C)c(=O)c(C)c32)c1 [Trametinib] + Cc1nc(-c2cn3c(n2)-c2ccc(-c4cnn(C(C)(C)C(N)=O)c4)cc2OCC3)n(C(C)C)n1 [Taselisib] (first compound max 1 µM, 7x7, partner max 10 µM)	-0.0052	0.029	-0.0007	0.0409	-0.0339	0.0954	0.0958	0.232	0.105	0.241	0.113	0.0783	0.04	0.245	0.192	0.0116	0.0464	0.0652	0.0217	0.175
CC1(C)CCC(CN2CCN(c3ccc(C(=O)NS(=O)(=O)c4ccc(NCC5CCOCC5)c([N+](=O)[O-])c4)c(Oc4cnc5[nH]ccc5c4)c3)CC2)=C(c2ccc(Cl)cc2)C1 [Venetoclax] + C1CN(CCC1(C(=O)N[C@@H](CCO)C2=CC=C(C=C2)Cl)N)C3=NC=NC4=C3C=CN4 [Capivasertib] (first compound max 1 µM, 7x7, partner max 3 µM)	-0.0111	-0.0434	0.0036	-0.0664	-0.0182	-0.0211	-0.0483	-0.0175	-0.0444	0.0096	-0.0458	-0.0463	-0.0424	0.0124	-0.041	-0.0212	-0.0585	-0.0441	-0.0103	-0.0343
CC1(C)CCC(CN2CCN(c3ccc(C(=O)NS(=O)(=O)c4ccc(NCC5CCOCC5)c([N+](=O)[O-])c4)c(Oc4cnc5[nH]ccc5c4)c3)CC2)=C(c2ccc(Cl)cc2)C1 [Venetoclax] + C=CCn1c(=O)c2cnc(Nc3ccc(N4CCN(C)CC4)cc3)nc2n1-c1cccc(C(C)(C)O)n1 [AZD1775] (first compound max 1 µM, partner max 1 µM)	0.0168	-0.0548	0.0734	-0.0095	-0.0952	0.0353	0.0075	-0.0111	-0.001	0.0933	-0.0169	-0.0142	-0.0942	0.0212	-0.0709	-0.0341	0.0124	-0.0505	-0.0267	-0.0808
CC1(C)CCC(CN2CCN(c3ccc(C(=O)NS(=O)(=O)c4ccc(NCC5CCOCC5)c([N+](=O)[O-])c4)c(Oc4cnc5[nH]ccc5c4)c3)CC2)=C(c2ccc(Cl)cc2)C1 [Venetoclax] + CCN(CCO)CCCOc1ccc2c(Nc3cc(CC(=O)Nc4cccc(F)c4)[nH]n3)ncnc2c1 [AZD2811] (first compound max 1 µM, 7x7, partner max 1 µM)	0.0051	-0.0185	0.234	-0.0608	-0.0091	0.0269	-0.0014	-0.0228	-0.0204	0.0141	-0.0661	-0.0095	-0.0389	0.103	0.0161	0.0341	-0.0368	0.0061	0.005	-0.0272
CC1(C)CCC(CN2CCN(c3ccc(C(=O)NS(=O)(=O)c4ccc(NCC5CCOCC5)c([N+](=O)[O-])c4)c(Oc4cnc5[nH]ccc5c4)c3)CC2)=C(c2ccc(Cl)cc2)C1 [Venetoclax] + CN(C)CCCOc1ccc(-c2ccc3ncc4c(c3c2)n(C2CCOCC2)c(=O)n4C)cn1 [AZD0156] (first compound max 1 µM, 7x7, partner max 1 µM)	-0.0227	0.024	0.0334	-0.0408	-0.0236	0.013	-0.015	-0.0319	-0.0266	0.0188	-0.0856	-0.003	-0.045	0.0016	0.011	0.0046	-0.0333	-0.0299	-0.0194	-0.0052

Source: the supplement of paper PMC11061612
